{
  "source": "patent US20030198611A1",
  "about": "“Method of treating onychomycosis with urea and an antioxidant” (Bradley Pharmaceuticals, Inc., priority 2002, published 2003)",
  "test_system": "fungi",
  "test": "antifungal potency of urea compared with known antifungal agents",
  "conditions": "no method or data given",
  "data": [
    {"smiles": "NC(N)=O", "note": "[urea]", "values": [
      {"measurement": "antifungal potency relative to known antifungal agents", "result": "equal potency to known antifungal agents"}
    ]}
  ]
}
